Test results as given in patent US12611456B2, “Use of thiazole amide compounds for modulating human immune response” (Children's Medical Center Corporation, priority 2019, dated 2026).
Entries after “also recorded” stand apart in the source; their conditions may differ.

Legend:
NF-κB [1] = assay: THP1-NF-κB reporter cell line, luminescence; type: cell-based, human; details: THP1-NF-κB cells, 100 to 0.02 μM
From the text: (§1) The THP1-NF-κB Lucia, THP1-dual NF-κB/IRF parent cell line, knocked out for MyD88 (THP1-AMyD88), TBK1 (THP1-ΔTBK1), IRF3 (THP1-AIRF3), cGAS (THP1-AcGAS), STING (THP1-ASTING), or expressing murine STING were obtained from Invivogen (San Diego, CA). THP1-derived cell lines are human monocytic cells derived from the blood of a child with leukemia and contain NF-κB- and IRF-inducible reporter construct to allow colorimetric- or luminescence-based assessment of NF-κB and IRF activities. THP1 cells were cultured in RPMI 1640 supplemented with 10% non-heat inactivated fetal bovine serum (FBS), 10 mM HEPES, 1.0 mM sodium pyruvate, 50 ug/ml Pen-Strep, and 100 ug/mL Normocin™. Once cultured, the cells were stored in a 37° C. incubator with 5% CO2 and a humidified atmosphere. Cells were passaged every 2-3 days and not allowed to exceed a concentration of 2.0×10^6 cells/ml media.
THP1-NF-κB cells between passage 15 and 18 and suspended in culture medium were dispensed into 384-well black clear-bottom plates (Corning 3712) at 30,000 cells/30 μl/well using a Combi liquid dispenser. To allow comparison to a benchmark small molecule with known immune stimulating activity, cells at the same concentration were stimulated with 50 μM R848, a TLR7/8 agonist, in 0.3% DMSO and added to every other well of column 24, which was left empty of cells, by multichannel pipette at the same volume. Five μl of 700 nM Phorbol myristate acetate (PMA) in THP1 culture media and 2.3% DMSO, a known peripheral blood cell mitogen, was added to every other well of column 23 by multichannel pipette (final concentration in well: 100 nM in 0.3% DMSO). Five μl of THP1 culture media with 2.3% DMSO was added to the remaining wells of column 23 by multichannel pipette (final concentration 0.3% DMSO). One hundred nl aliquots of library compounds diluted in 100% DMSO were transferred from their original 384-well plates to the assay plates using a Seiko pin transfer machine. Each library plate was pinned in duplicate, yielding two assay plates with identical conditions for comparison. Plates were then incubated for 24 hours at 37 C with 5% CO2 in humid conditions. Following incubation, 10 μL of supernatant was removed from each well and transferred to a white plate (Corning 3570) using a Vprep liquid transfer machine. 10 μL of recombinant Lucia protein (Invivogen) diluted 1:2000 in THP1 culture media was added to empty well 24P. Using a Combi liquid dispenser, 50 μL/well of Quanti-Luc substrate (Invivogen) diluted 1:3 in sterile water was added to the assay plate. Immediately after adding the substrate, the luminescence was read using a PerkinElmer Envision plate reader. This assay was adapted to a 96 well format to confirm and expand the HTS results.

IRF [2] = assay: THP1-ISG reporter cell line, luminescence; type: cell-based, human; details: THP1-ISG cells, 100 to 0.02 μM
From the text: High throughput screen (HTS) overview: To identify small molecule immunomodulators/adjuvants that robustly activate human immune cells, ˜200,000 small molecules were screened and tested against THP1 cells. The chemical libraries screened included known bioactive and commercial libraries from various sources including commercial libraries such as ChemDiv, ChemBridge, and Asinex. All libraries were owned and provided by the Institute of Chemistry and Cell Biology (ICCB)—Longwood (Harvard Medical School). The project primary screen incorporated two distinct arms: a) a luciferase-based screen which corresponds to the relative activation of the human NFκB Reporter gene; and b) a fluorescence-based screen, corresponding to the phenotypic adherence, a distinct marker of cell activation, of the THP1 cells. In a secondary luciferase-based screen IRF-inducing activities of selected hits using a THP1-ISG reporter cell line were evaluated. Here, discovery of a thiazole amide small molecule family with both NFκB/IRF-inducing and leukocyte adherence-inducing activities towards human leukocytes was observed.
Briefly, THP1-dual NF-κB/IRF parent and derived cell lines were resuspended at a concentration of 10^5 cells/200 μl of THP1 culture medium and transferred to a 96-well plate pre-loaded with compounds dissolved in DMSO. In selected experiments, THP1 cells were also stimulated with TNF and IFNβ as controls for NF-κB and IRF activities, respectively. After 22-24 hours of incubation (37° C., 5% CO2), plates were spun down (500×g, room temperature, 5 minutes) and supernatants were harvested to assess NF-κB and IRF activities by measuring the levels of SEAP and Lucia luciferase with Quanti-Blue and Quanti-Luc, respectively.

C57BL/6 mice = assay: Influenza rHA immunization of mice, anti-rHA IgG by ELISA; details: rHA + compound vs rHA alone; for adjuvant activity: anti-rHA IgG titers: prime Day 0, boost Day 28, serum Day 28 and Day 42, i.m., 100 nmol
Method: C57BL/6 mice were obtained from Charles River Laboratories and housed in specific pathogen-free conditions in the animal research facilities at Boston Children's Hospital.
For immunization experiments, adult mice were immunized intramuscularly (i.m.) in the right posterior thigh with 50 μl of vaccine containing 0.33 μg of each of the following recombinant influenza virus hemagglutinins (rHA): A/Michigan/45/2015 (H1N1), A/Hong Kong/4801/2014 (H3N2), and B/Brisbane/60/2008, contained in the 2016-2017 formulation of the FluBlok vaccine (Protein Sciences Corp.). Mice were immunized with a prime-boost schedule (two injections four weeks apart). Vaccine in all experimental groups was formulated with 10% (v/v) DMSO and 5% (v/v) Tween-80. As indicated for specific experimental groups, vaccine was also formulated with compound 057 (100 nmol, final DMSO concentration 10%). Serum was collected 28 days post-prime (pre-boost blood sample) and 14 days post-boost for antibody detection. rHA-specific IgG were quantified by ELISA. High binding flat bottom 96-well plates (Corning Life Sciences) were coated with 1 μg/ml rHA in carbonate buffer pH 9.6, incubated overnight at 4° C. and blocked with PBS+BSA 1% (Sigma-Aldrich) for 1 h at room temperature (RT). Then, sera from vaccinated mice were added with an initial dilution of 1:100 and 1:4 serial dilutions in PBS+BSA 1% and incubated for 2 hrs at RT. Plates were then washed and incubated for 1 hr at RT with HRP-conjugated anti-mouse IgG (Southern Biotech). At the end of the incubation plates were washed again and developed with tetramethylbenzidine (BD Biosciences) for 5 minutes, then stopped with 1 N H2SO4. The optical density was read at 450 nm Versamax microplate reader with SoftMax Pro Version 5 (both from Molecular Devices) and endpoint titers were calculated using as cutoff three times the optical density of the background.

murine STING = target: T1, murine STING (Mus musculus, UniProt Q3TBT3); assay: NF-κB and IRF activities in THP1-dual reporter cells expressing murine STING; type: cell-based; details: 25 μM, 22-24 hr, fold over DMSO
T1 construct: host or cells: THP1-dual NF-κB/IRF reporter cells (human monocytic line) expressing murine STING
T1 sequence (Q3TBT3 1-378): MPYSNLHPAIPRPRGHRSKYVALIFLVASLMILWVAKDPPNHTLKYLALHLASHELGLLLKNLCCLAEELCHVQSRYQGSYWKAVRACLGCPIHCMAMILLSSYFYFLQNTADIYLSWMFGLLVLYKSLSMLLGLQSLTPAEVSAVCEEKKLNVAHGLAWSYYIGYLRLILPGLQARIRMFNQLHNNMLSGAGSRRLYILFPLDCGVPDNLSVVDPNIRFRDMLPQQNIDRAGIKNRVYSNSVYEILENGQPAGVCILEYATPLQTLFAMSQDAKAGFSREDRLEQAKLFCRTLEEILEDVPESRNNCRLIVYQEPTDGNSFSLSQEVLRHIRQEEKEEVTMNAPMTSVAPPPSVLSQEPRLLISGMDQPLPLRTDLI
From the text: as §1
(§2) Briefly, THP1-dual NF-κB/IRF parent and derived cell lines were resuspended at a concentration of 10^5 cells/200 μl of THP1 culture medium and transferred to a 96-well plate pre-loaded with compounds dissolved in DMSO. In selected experiments, THP1 cells were also stimulated with TNF and IFNβ as controls for NF-κB and IRF activities, respectively. […]

IRF [3] = assay: IRF activity in THP1-dual NF-κB/IRF reporter cells; type: cell-based, human; details: 22-24 hr, 100, 25, 6.25 and 1.56 μM, fold over DMSO
From the text: as §1, §2

NF-κB [4] = assay: NF-κB activity in THP1-dual NF-κB/IRF reporter cells; type: cell-based, human; details: 22-24 hr, 100, 25, 6.25 and 1.56 μM, fold over DMSO
From the text: as §1, §2

STING = assay: NF-κB and IRF activities in THP1 cells knocked out for cGAS or STING; type: cell-based, human; details: 25 μM, 22-24 hr, knockout vs parent THP1 cells
From the text: as §1, §2

THP1-NF-κB cells [5] = assay: THP1 cell adherence assay; type: cell-based, human; details: 33 μM, PMA and R848 positive controls
Method: (§3) Following incubation and supernatant transfer described above, each black assay plate was manually washed. First, remaining suspension cells were expelled into a bath of 15% bleach by shaking the plate upside down. The plate was then submerged in a 7 L bath of 1×PBS. Once submerged, each plate was shaken vigorously side-to-side to release any air bubbles forming in the wells. The plate was then removed and shaken into the bleach bath once again. This process was repeated 3 times per plate. 30 μL/well of a mix of 2 μg/mL Hoechst 33342 in PBS with 1% Para-formaldehyde was added using a Combi liquid dispenser to the washed assay plates. Plates were left in the dark to stain and fix for 20 minutes. Washed and stained assay plates were then loaded onto an Acumen laser scanning cytometer. Total fluorescence area and number of objects (nuclei) were measured using the instrument for each well. This assay was adapted to a 96 well format to confirm and expand the HTS results. […] After 24 hours of incubation (37° C., 5% CO2), plates were washed with PBS to determine the number of adherent cells Alternatively, plates were spun down (500×g, room temperature, 5 minutes) and cells were harvested for staining with fluorescent Annexin V or antibodies against co-stimulatory markers CD80 and CD86 (Biolegend) according to the manufacturer's protocols and analyzed by flow cytometry (BD LSRFortessa).

MyD88 = assay: NF-κB and IRF activities in THP1 cells knocked out for MyD88, TBK1 or IRF3; type: cell-based, human; details: 25 μM, 22-24 hr, knockout vs parent THP1 cells
From the text: as §1, §2

THP1-NF-κB cells [6] = assay: Annexin V staining for apoptotic cells; type: cell-based, human; details: 33 μM
Method: as §3

THP1-NF-κB cells [7] = assay: Expression of co-stimulatory molecules CD80 and CD86 by flow cytometry; type: cell-based, human; details: 33 μM
Method: as §3

SMILES	NFκB-inducing activity (RLU) (NF-κB [1])	NFκB-inducing activity (RLU) (NF-κB [1]; listed as 057.2)	IRF-inducing activity (RLU) (IRF [2])	IRF-inducing activity (RLU) (IRF [2]; listed as 057.2)	NFκB-inducing activity (RLU) (NF-κB [1]; listed as 057.3)	IRF-inducing activity (RLU) (IRF [2]; listed as 057.3)	adjuvant activity: anti-rHA IgG titers (C57BL/6 mice)	adjuvant activity: anti-rHA IgG titers (C57BL/6 mice; listed as PVP-057)	adjuvant activity: rHA-specific IgG titers (C57BL/6 mice; single i.m. injection Day 0, serum Day 14)	activation of murine STING (NF-κB and IRF activities) (murine STING)	IRF activity (IRF [3])	NF-κB activity (NF-κB [4])	dependence of NF-κB and IRF activities on STING (STING)	cell adherence (number of adherent cells) (THP1-NF-κB cells [5])	dependence of NF-κB and IRF activities on MyD88 (MyD88)	apoptosis (Annexin V+ cells) (THP1-NF-κB cells [6])	expression of co-stimulatory molecules CD80 and CD86 (MFI) (THP1-NF-κB cells [7])
COc1ccc(C(=O)Nc2nc(CC(=O)Nc3nc4ccc(S(C)(=O)=O)cc4s3)cs2)cc1 [Compound 57.2]	comparable to or greater than the parent molecule 057	concentration-dependent activity	comparable to or greater than the parent molecule 057	concentration-dependent activity	–	–	–	–	–	–	–	–	–	–	–	–	–
COc1ccc(C(=O)Nc2nc(CC(=O)Nc3nc4ccccc4s3)cs2)cc1OC [Compound 57.3]	comparable to or greater than the parent molecule 057	–	comparable to or greater than the parent molecule 057	–	concentration-dependent activity	concentration-dependent activity	–	–	–	–	–	–	–	–	–	–	–
CCOc1ccc2nc(NC(=O)Cc3csc(NC(=O)c4cc(OC)cc(OC)c4)n3)sc2c1 [Compound 057]	concentration-dependent activity; also recorded: robustly induces both NFκB and IRF activities	–	concentration-dependent activity; also recorded: robustly induces both NFκB and IRF activities	–	–	–	exerts adjuvant activity in vivo; also recorded: substantially higher antibody titers; also recorded: demonstrates in vivo adjuvanticity in mice	demonstrates in vivo adjuvanticity in mice	exerts adjuvant activity in vivo; also recorded: substantially higher antibody titers	activates murine STING; also recorded: activated THP1 cells expressing murine STING	dose-dependent response; also recorded: elicited both NFκB and IRF activities; also recorded: elicits	dose-dependent response; also recorded: elicited both NFκB and IRF activities; also recorded: elicits	STING-dependent	induces cell adherence; also recorded: elicits human leukocyte adherence	MyD88-independent	does not induce apoptosis; also recorded: without inducing cellular apoptosis	induces the expression co-stimulatory molecules; also recorded: elicited the expression of surface co-stimulatory molecules; also recorded: elicits
